Test results: patent publication US20240208997A1, “CYCLIC BENZIMIDAZOLE DERIVATIVES AS CGAS INHIBITORS” (Boehringer Ingelheim International GmbH, priority 2022, published 2024)

Assays:
[1] = system: IFN induction in cGAMP-stimulated THP1 cells; assay: cGAMP stimulated counter cell assay in THP1-Dual cells (THP1(cGAMP) IC50); type: cell-based, human; conditions: Table 1; for IC50: Homo sapiens, THP-1, counter assay, 10 μM cGAMP stimulation, read-out: THP(cGAMP) IC50; for Ratio THP(cGAMP) IC50/THP(vir) IC50: selectivity for cGAS-inhibition
Text: (§1) 6.2 Method: Human cGAS Cell Assay and cGAMP Stimulated Counter Cell Assay (THP1(vir) IC50 and THP1(cGAMP) IC50)
For the counter assay, cells were stimulated by cGAMP (SigmaAldrich #SML1232) to activate the identical pathway independent and directly downstream of cGAS (measurement of THP1(cGAMP) IC50).
(§2) Pathway activity was monitored by measuring the Lucia luciferase activity induced by either DNA stimulated cGAS enzyme activity (measurement of THP1(vir) IC50) or by cGAMP directly (measurement of THP1(cGAMP) IC50, counter assay).
(§3) Compounds were delivered in 10 mM DMSO solution, serially diluted and transferred to the 384 well assay plate (Greiner #781201) using an Echo acoustic dispenser. Typically, 8 concentrations were used with the highest concentration at 10 μM in the final assay volume followed by ^˜1:5 dilution steps. DMSO concentration was set to 1% in the final assay volume. The 384 well assay plate contained […] (column 1-22), and DMSO in column 23 and 24.
(§4) Cells, cultivated according to manufacturer conditions, were harvested by centrifugation at 300 g/10 min and were then resuspended and diluted to 1.66E5 cells/ml in fresh cell culture medium (RPMI 1640 (Gibco #A10491-01), 10% FCS (Gibco #10500), 1× GlutaMax (Gibco #35050-061), 1× Pen/Strep solution (Gibco #15140-122), 100 μg/ml Normocin (InvivoGen #ant-nr), 100 μg/ml Zeocin (InvivoGen #ant-zn), 10 μg/ml Blasticidin S (Life Technologies #A11139-03)). The baculovirus solution was then added 1:200 (have varied according to virus batch) to the cells (measurement of THP1(vir) IC50).
(§5) 30 μL of the cell/virus-mix were added to each well of the compound plate from column 1-23 via MultiDrop Combi dispenser (5000 cells/well). In column 24, 30 μl/5000 cells/well without virus were added as a low control.
(§6) The plates were then incubated for 18 h at 37° C. in a humidified incubator.
(§7) Following that, 15 μL of QuantiLuc detection reagent (InvivoGen #rep-qlcg5) were added to each well using a MultiDrop Combi. Measurement was done immediately after the addition using an EnVision reader (US-luminescence read-mode).
(§8) Data Evaluation and Calculation:
(§9) For data evaluation and calculation, the measurement of the low control was set as 0% control and the measurement of the high control was set as 100% control. The IC50 values were calculated using the standard 4 parameter logistic regression formula. Calculation: [y=(a−d)/(1+(x/c)^b)+d], a=low value, d=high value; x=conc M; c=IC50 M; b=slope

[2] = system: IFN induction in dsDNA-stimulated human whole blood; assay: Human whole blood assay (hWB IC50), dsDNA stimulated, IFNα2α production; type: cell-based; conditions: Table 1
Procedure: 6.3 Method: Human Whole Blood Assay (Human WB IC50)
For the detection of cellular cGAS activity human whole blood was stimulated by transfection with double stranded DNA. Pathway activity was monitored by measuring the IFNα2α production.
Compounds were delivered as 10 mM DMSO solution and serially diluted and transferred to the 96-well cell culture plate (Corning #3595), prefilled with 20 μl OptiMEM (Gibco, #11058-021) in each well, using an Echo acoustic dispenser. Typically, 8 concentrations were used with the highest concentration at 10 μM in the final assay volume followed by ^˜1:5 dilution steps. DMSO concentration was set to 0.1% in the final assay volume. The 96-well assay plate contained 10 test compounds, and DMSO in control wells.
Collection of human whole blood from 3 or more healthy donors (male or female, no medication for 7 days except contraceptive and thyroxine) as Na-Citrate blood (e.g. 3.8% in Monovettes from Sarstedt) was conducted in parallel. Whole blood was kept at room temperature for a maximum of 3 hours after collection until use in the assay. 160 μl of the whole blood samples was transferred to each well of the 96-well assay plates filled with compound/OptiMEM. All assay plates were prepared as duplicates with blood from different donors. Blood plates were kept at room temperature for 60 minutes and continuous shaking with 450 rpm, covered with the lid, but not sealed.
20 μl OptiMEM and 9.6:1 Fugene was added to all low control wells.
After covering assay plates with aera seals and the lid, blood plates were kept at room temperature for 30 minutes and continuous shaking with 450 rpm, followed by an overnight incubation of 22 h at 37° C. in the incubator, without shaking.
For the detection of IFNα-2α in human plasma, the biotinylated capture antibody (Antibody set IFNA2, Meso Scale Diagnostics #B21VH-3, including coating and capture antibody) was diluted 1:17.5 in Diluent 100 (Meso Scale Diagnostics #R50AA-4), according to the manufacturer's directions. U-Plex MSD GOLD 96-well Small Spot Strepavidin SECTOR Plates (Meso Scale Diagnostics #L45SA-5) were coated with 25 μl diluted capture antibody. Coated plates were incubated for 60 min at room temperature under continuous shaking at 700 rpm. MSD IFNα-2α plates were washed three times with 150 μl wash buffer (1× HBSS, 0.05% Tween).
After blocking the plates with 100 μl block solution/well (1× HBSS with 0.2% Tween, 2% BSA) for 60 min at room temperature and continuous shaking at 700 rpm, plates were emptied as dry as possible by dumping just before continuing with the human plasma.
Whole Blood assay plates were centrifuged at 1600 rpm for 10 minutes. 25 μl of supernatant was transferred with a pipetting robot from each whole blood plate to the corresponding IFNα-2α plate. Plates were sealed with microplate seals and kept at room temperature again under continuous shaking at 700 rpm for two hours.
Next MSD IFNα-2α plates were washed three times with 150 μl wash buffer (1× HBSS, 0.05% Tween), before adding 25 μl MSD SULFO-TAG IFNα-2α Antibody solution (1:100 diluted in Diluent 3 (Meso Scale Diagnostics #R50AP-2) to each well of the plates.
Afterwards plates were sealed with microplate seals and kept at room temperature again under continuous shaking at 700 rpm for two hours. Finally, MSD IFNα-2α plates were washed three times with 150 μl wash buffer (1× HBSS, 0.05% Tween). 150 μl 2× Read buffer was added to each well and plates were immediately measured with the MSD Sector S600 Reader using the vendor barcode.
as §8
For data evaluation and calculation, % control calculation of each well was based on the mean of high (DNA stimulated control) and mean of low (unstimulated control) controls by using the following formula:
[counts(sample)−counts(low))/(counts(high)−counts(low))]*100
The IC50-values were calculated using the standard 4 parameter logistic regression formula. […]

[3] = system: IFN induction in virus-stimulated THP1 cells; assay: Human cGAS cell assay, virus-stimulated THP1-Dual cells (THP1(vir) IC50); type: cell-based; conditions: THP-1, 18 h, Table 1, baculovirus-stimulated THP1-Dual cells, Lucia luciferase, 18 h, read-out: THP(vir) IC50
Text: as §1
THP1-Dual™ cells (InvivoGen #thpd-nfis) expressing IRF dependent Lucia luciferase reporter were used as basis for both assays. For the detection of cellular cGAS activity cells were stimulated by a baculovirus (pFastbac-1, Invitrogen, no coding insert) infection that delivers the cGAS enzyme stimulating double-stranded DNA (measurement of THP1(vir) IC50).
as §2, §3, §4, §5, §6, §7, §8, §9

C[C@H]1CN2CC[C@@H]1n1c(nc3ccccc31)O[C@H]1C[C@@H](C(=O)O)N(C1)c1nc(nc3c1oc1cc(Cl)ccc13)CCOCCCC2=O [Example 1.07]
IC50 [1]: > 10 µM
Ratio THP(cGAMP) IC50/THP(vir) IC50 [1]: >1541
IC50 [2]: 0.013 µM
IC50 [3]: 0.0065 µM

C[C@H]1CN2CC[C@@H]1n1c(nc3cc(Cl)ccc31)O[C@H]1C[C@@H](C(=O)O)N(C1)c1nc(nc3c1oc1cc(Cl)ccc13)CCOCCCC2=O [Example 1.08]
IC50 [1]: 9.5 µM
Ratio THP(cGAMP) IC50/THP(vir) IC50 [1]: 3928
IC50 [2]: 0.017 µM
IC50 [3]: 0.0024 µM

C[C@H]1CN2CC[C@@H]1n1c(nc3cc(Cl)ccc31)O[C@H]1C[C@@H](C(=O)O)N(C1)c1nc(nc3c1oc1cc(F)ccc13)CCCCOCC2=O [Example 1.09]
IC50 [1]: > 10 µM
Ratio THP(cGAMP) IC50/THP(vir) IC50 [1]: 4305
IC50 [2]: 0.002 µM
IC50 [3]: 0.0043 µM

C[C@H]1CN2CC[C@@H]1n1c(nc3ccc(Cl)cc31)O[C@H]1C[C@@H](C(=O)O)N(C1)c1nc(nc3c1oc1ccccc13)COCCCCC2=O [Example 1.10]
IC50 [1]: > 10 µM
Ratio THP(cGAMP) IC50/THP(vir) IC50 [1]: >790
IC50 [2]: 0.012 µM
IC50 [3]: 0.013 µM

C[C@H]1CN2CC[C@@H]1n1c(nc3cc(Cl)ccc31)O[C@H]1C[C@@H](C(=O)O)N(C1)c1nc(nc3c1oc1ccccc13)COCCOCC2=O [Example 1.11]
IC50 [1]: ≥ 10 µM
Ratio THP(cGAMP) IC50/THP(vir) IC50 [1]: >2907
IC50 [2]: 0.003 µM
IC50 [3]: 0.0036 µM

C[C@H]1CN2CC[C@@H]1n1c(nc3cc(Cl)ccc31)O[C@H]1C[C@@H](C(=O)O)N(C1)c1nc(nc3c1oc1ccccc13)C(F)(F)CCCCCC2=O [Example 1.12]
IC50 [1]: 3.6 µM
Ratio THP(cGAMP) IC50/THP(vir) IC50 [1]: 1620
IC50 [2]: 0.005 µM
IC50 [3]: 0.0022 µM

C[C@H]1CN2CC[C@@H]1n1c(nc3ccc(Cl)cc31)O[C@H]1C[C@@H](C(=O)O)N(C1)c1nc(nc3c1oc1ccccc13)C(F)(F)CCCCCC2=O [Example 1.13]
IC50 [1]: 11 µM
Ratio THP(cGAMP) IC50/THP(vir) IC50 [1]: 2251
IC50 [2]: 0.015 µM
IC50 [3]: 0.0049 µM

C[C@H]1CN2CC[C@@H]1n1c(nc3ccccc31)O[C@H]1C[C@@H](C(=O)O)N(C1)c1nc(nc3c1oc1cc(F)ccc13)C(F)(F)CCCCCC2=O [Example 1.14]
IC50 [1]: 18 µM
Ratio THP(cGAMP) IC50/THP(vir) IC50 [1]: 11920
IC50 [2]: 0.004 µM
IC50 [3]: 0.0015 µM

O=C(O)[C@@H]1C[C@H]2CN1c1nc(nc3c1oc1ccccc13)CCCOCC(=O)N1CCC(CC1)n1c(nc3ccccc31)O2 [Example 9.01]
IC50 [2]: 0.041 µM
IC50 [3]: 0.4 µM
